Experimental data as given in patent US4225586A, “Antibiotic SB-72310” (Takeda Chemical Industries, Ltd., priority 1978, dated 1980).
Where a name gives a salt, the structure may show the parent alone.

Tests used:
[1] = Stability in aqueous solution; format: physicochemical
Protocol: 12. Stability: Stable in aqueous solution in the range of pH 3 to 7 at 60° C. for 10 minute heating; unstable over pH 8.5.
10. Stability: Stable in aqueous solution in the range of pH 3 to 7 at 60° C. for 10 minute heating; unstable over pH 8.5.

mice = experiment: Acute toxicity, intravenous; format: in vivo
Protocol: The acute toxicity of the sodium salt of Antibiotic SB-72310 is low, with no deaths being encountered when 500 mg/kg of the salt was administered to mice by the intravenous route.

Solubility in solvents = format: physicochemical
[2] = system: Bacillus subtilis IFO 3513; experiment: Antimicrobial spectrum, paper disk method; format: cell-based; conditions: IFO3513, 25 μl of 10 mg/ml in 8 mm paper disks, Trypticasesoy-broth-agar, read-out: Inhibition diameter
Protocol: (§1) The biological characteristics of SB-72310 are as follows.
(§2) Antimicrobial spectra of SB-72310(Inhibition diameter (mm)
(§3) by paper disk method) (25 μl of test solution of 10 mg/ml
(§4) is absorbed in paper disks of 8 mm diameter)
(§5) Medium = Trypticasesoy-broth-agar

[3] = system: Proteus mirabilis IFO 3849; experiment: Antimicrobial spectrum, paper disk method; format: cell-based; conditions: IFO3849, 25 μl of 10 mg/ml in 8 mm paper disks, Trypticasesoy-broth-agar, read-out: Inhibition diameter
Protocol: as §1, §2, §3, §4, §5

Bacillus cereus IFO 3466 = experiment: Antimicrobial spectrum, paper disk method; format: cell-based; conditions: IFO3466, 25 μl of 10 mg/ml in 8 mm paper disks, Trypticasesoy-broth-agar, read-out: Inhibition diameter
Protocol: as §1, §2, §3, §4, §5

[4] = system: Comamonas terrigena IFD 12685; experiment: Antimicrobial spectrum, paper disk method; format: cell-based; conditions: IFD12685, 25 μl of 10 mg/ml in 8 mm paper disks, Trypticasesoy-broth-agar, read-out: Inhibition diameter
Protocol: as §1, §2, §3, §4, §5

[5] = system: Salmonella typhimurium IFO 12529; experiment: Antimicrobial spectrum, paper disk method; format: cell-based; conditions: Salmonella enterica, 25 μl of 10 mg/ml in 8 mm paper disks, Trypticasesoy-broth-agar, read-out: Inhibition diameter
Protocol: as §1, §2, §3, §4, §5

[6] = system: Staphylococcus aureus FDA 209P; experiment: Antimicrobial spectrum, paper disk method; format: cell-based; conditions: FDA209P, 25 μl of 10 mg/ml in 8 mm paper disks, Trypticasesoy-broth-agar, read-out: Inhibition diameter
Protocol: as §1, §2, §3, §4, §5

[7] = system: Klebsiella pneumoniae IFO 3318; experiment: Antimicrobial spectrum, paper disk method; format: cell-based; conditions: IFO3318, 25 μl of 10 mg/ml in 8 mm paper disks, Trypticasesoy-broth-agar, read-out: Inhibition diameter
Protocol: as §1, §2, §3, §4, §5

[8] = system: Serratia marcescens IFO 12648; experiment: Antimicrobial spectrum, paper disk method; format: cell-based; conditions: IFO12648, 25 μl of 10 mg/ml in 8 mm paper disks, Trypticasesoy-broth-agar, read-out: Inhibition diameter
Protocol: as §1, §2, §3, §4, §5

[9] = system: Escherichia coli NIHJ JC-2; experiment: Antimicrobial spectrum, paper disk method; format: cell-based; conditions: NIHJJC2, 25 μl of 10 mg/ml in 8 mm paper disks, Trypticasesoy-broth-agar, read-out: Inhibition diameter
Protocol: as §1, §2, §3, §4, §5

Sarcina lutea IFO 3232 = experiment: Antimicrobial spectrum, paper disk method; format: cell-based; conditions: Micrococcus luteus, IFO3232, 25 μl of 10 mg/ml in 8 mm paper disks, Trypticasesoy-broth-agar, read-out: Inhibition diameter
Protocol: as §1, §2, §3, §4, §5

[10] = system: Proteus vulgaris IFO 3045; experiment: Antimicrobial spectrum, paper disk method; format: cell-based; conditions: IFO3045, 25 μl of 10 mg/ml in 8 mm paper disks, Trypticasesoy-broth-agar, read-out: Inhibition diameter
Protocol: as §1, §2, §3, §4, §5

[11] = system: Pseudomonas fluorescens IFO 3081; experiment: Antimicrobial spectrum, paper disk method; format: cell-based; conditions: IFO3081, 25 μl of 10 mg/ml in 8 mm paper disks, Trypticasesoy-broth-agar, read-out: Inhibition diameter
Protocol: as §1, §2, §3, §4, §5

[12] = system: Alcaligenes faecalis IFO 13111; experiment: Antimicrobial spectrum, paper disk method; format: cell-based; conditions: IFO13111, 25 μl of 10 mg/ml in 8 mm paper disks, Trypticasesoy-broth-agar, read-out: Inhibition diameter
Protocol: as §1, §2, §3, §4, §5

gram-negative bacteria = experiment: Antibacterial activity against gram-negative bacteria; format: cell-based; conditions: paper disk method, Table 2
Protocol: as §1, §2, §3, §4, §5

[13] = Basicity, neutrality or acidity; format: physicochemical
gram-positive bacteria = experiment: Antibacterial activity against gram-positive bacteria; format: cell-based; conditions: paper disk method, Table 2
Protocol: as §1, §2, §3, §4, §5

[14] = aqueous solution, pH 3 to 7, 60° C., 10 minute heating

COC1(NC(=O)C(C)NC(=O)CCC(N)C(=O)O)CN(S(=O)(=O)O)C1=O (stereo not shown) [SB-72310 sodium salt]
Stability [1, 14]: Stable
Stability ([1]; over pH 8.5): unstable
Acute toxicity (mice): low
Deaths (mice; 500 mg/kg): no deaths
Solubility in solvents (Solubility in solvents; acetone): Insoluble
Solubility in solvents (Solubility in solvents; benzene): Insoluble
Solubility in solvents (Solubility in solvents; chloroform): Insoluble
Solubility in solvents (Solubility in solvents; diethyl ether): Insoluble
Solubility in solvents (Solubility in solvents; dimethylsulfoxide): soluble
Solubility in solvents (Solubility in solvents; ethanol): sparingly soluble
Solubility in solvents (Solubility in solvents; ethyl acetate): Insoluble
Solubility in solvents (Solubility in solvents; hexane): Insoluble
Solubility in solvents (Solubility in solvents; methanol): sparingly soluble
Solubility in solvents (Solubility in solvents; petroleum ether): Insoluble
Solubility in solvents (Solubility in solvents; pyridine): sparingly soluble
Solubility in solvents (Solubility in solvents; water): readily soluble

COC1(NC(=O)C(C)NC(=O)CCC(N)C(=O)O)CN(S(=O)(=O)O)C1=O (stereo not shown) [SB-72310]
zone of inhibition at 10000 µg/mL [2]: 22 mm
zone of inhibition at 10000 µg/mL [3]: 19 mm
zone of inhibition at 10000 µg/mL (Bacillus cereus IFO 3466): 14.5 mm
zone of inhibition at 10000 µg/mL [4]: 25 mm
zone of inhibition at 10000 µg/mL [5]: 18.5 mm
zone of inhibition at 10000 µg/mL [6]: 18.5 mm
zone of inhibition at 10000 µg/mL [7]: 12.5 mm
zone of inhibition at 10000 µg/mL [8]: 17 mm
zone of inhibition at 10000 µg/mL [9]: 14.5 mm
zone of inhibition at 10000 µg/mL (Sarcina lutea IFO 3232): 23 mm
zone of inhibition at 10000 µg/mL [10]: 18 mm
zone of inhibition at 10000 µg/mL [11]: 12.5 mm
zone of inhibition at 10000 µg/mL [12]: 23 mm
Stability [1, 14]: Stable
Stability ([1]; over pH 8.5): unstable
Solubility in solvents (Solubility in solvents; acetone): sparingly soluble
Solubility in solvents (Solubility in solvents; benzene): Insoluble
Solubility in solvents (Solubility in solvents; chloroform): Insoluble
Solubility in solvents (Solubility in solvents; diethyl ether): Insoluble
Solubility in solvents (Solubility in solvents; dimethylsulfoxide): soluble
Solubility in solvents (Solubility in solvents; ethanol): sparingly soluble
Solubility in solvents (Solubility in solvents; ethyl acetate): Insoluble
Solubility in solvents (Solubility in solvents; hexane): Insoluble
Solubility in solvents (Solubility in solvents; methanol): soluble
Solubility in solvents (Solubility in solvents; petroleum ether): Insoluble
Solubility in solvents (Solubility in solvents; pyridine): sparingly soluble
Solubility in solvents (Solubility in solvents; water): readily soluble
Activity against gram-negative bacteria (gram-negative bacteria): active
Basicity, neutrality or acidity [13]: Acid
Activity against gram-positive bacteria (gram-positive bacteria): active
